Laboratory results from patent publication US9573954B2, “Pyrazolopyrimidine compounds” (University Health Network, priority 2012, dated 2017).

Tests used:
[1] = tested on: Ovarian 2393A tumor initiating cells; experiment: Tumor-initiating cell growth inhibition, Alamar Blue assay, ovarian TICs; type: cell-based; details: 144 h; Table 2; ovarian TICs, 6 days, Alamar Blue; read-out: Tumor Initiating Cell GI50 Range Ovarian 2393A
Outline: (§1)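 Colon TICs (4,000/well, non-TC plates) and ovarian TICs (1,000/well, TC plates) kept in serum-free DMEM:F12 with B-27, heparin, bFGF and EGF. Compound added after 24 h at 0.1% DMSO, then 9 days (colon) or 6 days (ovarian) at 37° C. GI50 from Alamar Blue fluorescence (ex 544/em 590) after 4 h.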

[2] = tested on: colon cancer cells (HCT116); experiment: Cancer cell line growth inhibition, Sulforhodamine B assay, HCT116; type: cell-based; details: Homo sapiens, HCT-116, 120 h, Table 2; HCT116, 5 days, SRB; read-out: Cancer Cell Line GI50 Range HCT116
Outline: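 GI50 is calculated from growth inhibition relative to DMSO controls, using TCA-fixed, SRB-stained protein mass read at 570 nm. Compound, 10 nM–50 μM final in 10% FBS DMEM, was applied for 5 days to HCT116 cells that had been plated 24 h before at 1000–4000/well.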

[3] = target: T1, human TTK (Homo sapiens, UniProt P33981); experiment: TTK inhibition assay (indirect ELISA); type: biochemical; details: Table 2; 16 μM ATP (asterisk); read-out: TTK IC50 Range
T1 construct: Active TTK was purchased from Invitrogen as an amino terminal GST fusion of full length human TTK; purchased Invitrogen
T1 sequence (P33981 1-857): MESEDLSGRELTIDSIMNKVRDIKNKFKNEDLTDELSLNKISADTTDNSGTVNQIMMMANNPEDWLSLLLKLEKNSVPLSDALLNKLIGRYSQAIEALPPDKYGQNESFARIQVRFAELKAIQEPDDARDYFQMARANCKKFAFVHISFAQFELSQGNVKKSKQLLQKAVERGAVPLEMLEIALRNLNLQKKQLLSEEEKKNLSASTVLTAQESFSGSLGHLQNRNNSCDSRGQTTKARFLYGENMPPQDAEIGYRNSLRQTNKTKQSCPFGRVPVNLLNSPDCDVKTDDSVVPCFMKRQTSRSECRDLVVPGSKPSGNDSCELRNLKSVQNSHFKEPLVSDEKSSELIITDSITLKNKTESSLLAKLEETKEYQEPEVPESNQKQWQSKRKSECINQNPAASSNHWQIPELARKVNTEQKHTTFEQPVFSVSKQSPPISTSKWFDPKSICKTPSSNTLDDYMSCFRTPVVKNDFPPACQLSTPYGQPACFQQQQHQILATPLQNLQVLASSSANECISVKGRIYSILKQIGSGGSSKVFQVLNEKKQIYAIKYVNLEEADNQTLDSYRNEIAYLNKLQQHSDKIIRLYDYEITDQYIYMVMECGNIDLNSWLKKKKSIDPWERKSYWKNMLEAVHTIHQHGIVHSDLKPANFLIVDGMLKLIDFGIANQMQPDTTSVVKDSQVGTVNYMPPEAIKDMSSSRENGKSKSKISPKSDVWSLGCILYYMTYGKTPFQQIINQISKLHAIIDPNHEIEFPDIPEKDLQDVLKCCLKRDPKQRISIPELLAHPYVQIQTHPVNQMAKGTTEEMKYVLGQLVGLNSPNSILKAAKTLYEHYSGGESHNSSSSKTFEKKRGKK
Outline: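 Activity detected by indirect ELISA after compounds sat with full-length GST-TTK for 5 min prior to starting the reaction with ATP. IC50 came from a four-parameter logistic curve of % inhibition, calculated against background and uninhibited control wells.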

[4] = tested on: Colon 12 tumor initiating cells; experiment: Tumor-initiating cell growth inhibition, Alamar Blue assay, colon TICs; type: cell-based; details: 216 h; Table 2; colon TICs, 9 days, Alamar Blue; read-out: Tumor Initiating Cell GI50 Range Colon 12
Outline: as §1

[5] = tested on: ovarian cancer cells (PA-1); experiment: Cancer cell line growth inhibition, Sulforhodamine B assay, PA-1; type: cell-based; details: 120 h; Table 2; PA-1, 5 days, SRB; read-out: Cancer Cell Line GI50 Range PA-1
Procedure: (§2) Breast cancer cells (MDA-MB-231 and MDA-MB-468), colon cancer cells (HCT116) and ovarian cancer cells (PA-1 and OVCAR-3) were seeded (1000 to 4000 in 80 μl per well depending on the cell growth rate) into 96 well plates 24 hours before compound overlay. Compounds were prepared as 10 mM stock solutions in 100% DMSO which were diluted with DMEM (Dulbecco's Modified Eagle's Medium) cell growth Medium (Invitrogen, Burlington, ON, Canada) containing 10% FBS (Fetal Bovine Serum) to concentrations ranging from 50 nM to 250 μM. Aliquots (20 μl) from each concentration were overlaid to 80 μl of the pre-seeded cells in the 96 well plates to make final concentrations of 10 nM to 50 μM. The cells were cultured for 5 days before the Sulforhodamine B assay (SRB) was performed to determine the compound's cell growth inhibition activity.
(§3) Sulforhodamine B (purchased from Sigma, Oakville, ON, Canada) is a water-soluble dye that binds to the basic amino acids of the cellular proteins. Thus, colorimetric measurement of the bound dye provides an estimate of the total protein mass that is related to the cell number. the cells are fixed in situ by gently aspirating off the culture media and adding 50 μl ice cold 10% Trichloroacetic Acid (TCA) per well and incubate at 4° C. for 30-60 min, The plates are washed with H2O five times and allowed to air dry for 5 min. Addition of 50 μl 0.4% (w/v) SRB solution in 1% (v/v) acetic acid to each well and incubation for 30 min at RT completes the staining reaction. Following staining, plates are washed four times with 1% acetic acid to remove unbound dye and then allowed to air dry for 5 min. The stain is solubilized with 100 μl of 10 mM Tris pH 10.5 per well. Absorbance is read at 570 nm.
(§4) The percentage (%) of relative growth inhibition was calculated by comparing to DMSO treated only cells (100%). GI50's were determined for compounds with cytotoxic activity. The GI50 was calculated using GraphPad PRISM software (GraphPad Software, Inc., San Diego, Calif., USA).
In Table 1 below, GI50 value ranges for compound examples against breast cancer cell lines (MDA-MB-468), colon cancer cell lines (HCT116) and ovarian cancer cell lines (PA-1) are given.
(§5) In Table 2 below, GI50 value ranges for compound examples against breast cancer cell lines (MDA-MB-231), colon cancer cell lines (HCT116) and ovarian cancer cell lines (PA-1) are given.

[6] = tested on: breast cancer cells (MDA-MB-231); experiment: Cancer cell line growth inhibition, Sulforhodamine B assay, MDA-MB-231; type: cell-based; details: Homo sapiens, 120 h; Table 2; MDA-MB-231, 5 days, SRB; read-out: Cancer Cell Line GI50 Range MDA-MB-231
Procedure: as §2, §3, §4, §5

Row | SMILES | GI50 [1] | GI50 [2] | IC50 [3] | GI50 [4] | GI50 [5] | GI50 [6]
1 | CCC(CO)Nc1cc(NCC2CCOCC2)n2ncc(-c3ccc(C(=O)NC4CC4)c(C)c3)c2n1 (stereo in doubt) [Example B29, (R)-N-cyclopropyl-4-(5-((1-hydroxybutan-2-yl)amino)-7-(((tetrahydro-2H-pyran-4-yl)methyl)amino)pyrazolo[1,5-a]pyrimidin-3-yl)-2-methylbenzamide] | > 500 nM | 100 to 500 nM | < 100 nM | 100 to 500 nM | 100 to 500 nM | > 500 nM
2 | Cc1cc(-c2cnn3c(NCC4CCOCC4)cc(Oc4ccccc4)nc23)ccc1C(=O)NC1CC1 [Example B1] | ≤ 100 nM | ≤ 100 nM | < 100 nM | ≤ 100 nM | ≤ 100 nM | ≤ 100 nM
3 | COCCNc1cc(Oc2ccccc2)nc2c(-c3ccc(C(=O)NC4CC4)cc3)cnn12 [Example B2, N-cyclopropyl-4-(7-((2-methoxyethyl)amino)-5-phenoxypyrazolo[1,5-a]pyrimidin-3-yl)benzamide] | > 500 nM | > 500 nM | < 100 nM | 100 to 500 nM | 100 to 500 nM | > 500 nM
4 | O=C(NC1CC1)c1ccc(-c2cnn3c(NCC4CCOCC4)cc(Oc4ccccc4)nc23)cc1 [Example B3, N-cyclopropyl-4-(5-phenoxy-7-(((tetrahydro-2H-pyran-4-yl)methyl)amino)pyrazolo[1,5-a]pyrimidin-3-yl)benzamide] | 100 to 500 nM | ≤ 100 nM | < 100 nM | 100 to 500 nM | ≤ 100 nM | 100 to 500 nM
5 | Cc1cc(-c2cnn3c(NCCN4CCOCC4)cc(Oc4ccccc4)nc23)ccc1C(=O)NC1CC1 [Example B5, N-cyclopropyl-2-methyl-4-(7-((2-morpholinoethyl)amino)-5-phenoxypyrazolo[1,5-a]pyrimidin-3-yl)benzamide] | ≤ 100 nM | ≤ 100 nM | < 100 nM | ≤ 100 nM | ≤ 100 nM | ≤ 100 nM
6 | O=C(NC1CC1)c1ccc(-c2cnn3c(NCCN4CCOCC4)cc(Oc4ccccc4)nc23)cc1 [Example B6, N-cyclopropyl-4-(7-((2-morpholinoethyl)amino)-5-phenoxypyrazolo[1,5-a]pyrimidin-3-yl)benzamide] | 100 to 500 nM | 100 to 500 nM | < 100 nM | 100 to 500 nM | ≤ 100 nM | 100 to 500 nM
7 | O=C(NC1CC1)c1ccc(-c2cnn3c(NCC4CCOCC4)cc(Oc4ccccc4)nc23)cc1Cl [Example B7, 2-chloro-N-cyclopropyl-4-(5-phenoxy-7-(((tetrahydro-2H-pyran-4-yl)methyl)amino)pyrazolo[1,5-a]pyrimidin-3-yl)benzamide] | ≤ 100 nM | ≤ 100 nM | < 100 nM | ≤ 100 nM | ≤ 100 nM | ≤ 100 nM
8 | O=C(NC1CC1)c1ccc(-c2cnn3c(NCC4CCOCC4)cc(Oc4ccccc4)nc23)cc1F [Example B8, N-cyclopropyl-2-fluoro-4-(5-phenoxy-7-(((tetrahydro-2H-pyran-4-yl)methyl)amino)pyrazolo[1,5-a]pyrimidin-3-yl)benzamide] | 100 to 500 nM | 100 to 500 nM | < 100 nM | 100 to 500 nM | ≤ 100 nM | 100 to 500 nM
9 | Cc1cc(-c2cnn3c(NCC4CCOCC4)cc(Oc4cccnc4)nc23)ccc1C(=O)NC1CC1 [Example B9, N-cyclopropyl-2-methyl-4-(5-(pyridin-3-yloxy)-7-(((tetrahydro-2H-pyran-4-yl)methyl)amino)pyrazolo[1,5-a]pyrimidin-3-yl)benzamide] | ≤ 100 nM | ≤ 100 nM | < 100 nM | ≤ 100 nM | ≤ 100 nM | ≤ 100 nM
10 | Cc1cc(-c2cnn3c(NCC4CCOCC4)cc(Oc4cccc(F)c4)nc23)ccc1C(=O)NC1CC1 [Example B12, N-cyclopropyl-4-(5-(3-fluorophenoxy)-7-(((tetrahydro-2H-pyran-4-yl)methyl)amino)pyrazolo[1,5-a]pyrimidin-3-yl)-2-methylbenzamide] | ≤ 100 nM | ≤ 100 nM | < 100 nM | ≤ 100 nM | ≤ 100 nM | ≤ 100 nM
11 | COCCNc1cc(Oc2ccccc2)nc2c(-c3ccc(C(=O)NC4CC4)c(C)c3)cnn12 [Example B13, N-cyclopropyl-4-(7-((2-methoxyethyl)amino)-5-phenoxypyrazolo[1,5-a]pyrimidin-3-yl)-2-methylbenzamide] | 100 to 500 nM | ≤ 100 nM | < 100 nM | ≤ 100 nM | ≤ 100 nM | ≤ 100 nM
12 | Cc1cc(-c2cnn3c(NCC4CCOCC4)cc(NC4CCCC4)nc23)ccc1C(=O)NC1CC1 [Example B14, 4-(5-(cyclopentylamino)-7-(((tetrahydro-2H-pyran-4-yl)methyl)amino)pyrazolo[1,5-a]pyrimidin-3-yl)-N-cyclopropyl-2-methylbenzamide] | ≤ 100 nM | ≤ 100 nM | < 100 nM | ≤ 100 nM | ≤ 100 nM | ≤ 100 nM
13 | Cc1cc(-c2cnn3c(NCC(C)C)cc(NC4CCOCC4)nc23)ccc1C(=O)NC1CC1 [Example B26, N-cyclopropyl-4-(7-(isobutylamino)-5-((tetrahydro-2H-pyran-4-yl)amino)pyrazolo[1,5-a]pyrimidin-3-yl)-2-methylbenzamide] | – | ≤ 100 nM | < 100 nM | – | ≤ 100 nM | 100 to 500 nM
14 | Cc1cc(-c2cnn3c(NC[C@H]4CC[C@H](O)CC4)cc(Oc4ccccc4)nc23)ccc1C(=O)NC1CC1 [Example B31, N-cyclopropyl-4-(7-((((1r,4r)-4-hydroxycyclohexyl)-methyl)amino)-5-phenoxypyrazolo[1,5-a]pyrimidin-3-yl)-2-methylbenzamide] | – | ≤ 100 nM | < 100 nM | – | ≤ 100 nM | ≤ 100 nM
